Assay results published in paper PMC8617031, “Development of a BCL-xL and BCL-2 dual degrader with improved anti-leukemic activity,” (Nature Communications, 2021).
Values joined by “and” are separate entries in the source; they are usually repeats but may differ in a detail not shown here. Equal entries are not always repeated. Where two headings read alike, the source gives them in different places.

Assays:
[1] = molecular target: T1, BCL-2 (Homo sapiens, UniProt P10415); test: BCL-2 degradation by immunoblot in 293T cells; format: cell-based; details: for normalized BCL-2 protein content at 1 µM: 293T, 1 μM 753b, Fig. 3d
T1 construct: endogenous in cells
Method in brief: (§1)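 Immunoblot of 293T cell lysates (RIPA, 20–40 μg protein per lane) with β-actin as loading control and chemiluminescent detection. Bands quantified by densitometry and normalized; DC50 and Dmax derived from the quantified blots, n = 3 biologically independent experiments.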

[2] = molecular target: T2, BCL-2/PROTAC/VCB ternary complex (Homo sapiens, UniProt P10415+P40337); test: AlphaLISA ternary complex formation, cell-free, BCL-2; format: binding; details: for Alpha (Alpha Endpoint read, Bcl-2 ternary complex formation): raw plate signal, duplicate wells; for AlphaLISA signal, BCL-2/PROTAC/VCB: Fig. 2d raw Alpha reads
T2 construct: pGEX-6P-1-VHL(54-213) (pDL2200) was constructed through Gibson assembly method; made in house; host or cells: bacterial culture (LB broth, IPTG induction)
Method in brief: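 Cell-free AlphaLISA: 5 nM His-tagged BCL-xL or BCL-2 plus 5 nM GST-VCB incubated with fourfold serially diluted compound 30 min at room temperature. Glutathione donor and His acceptor beads (20 µg/ml each) then added for 15 and 45 min; AlphaLISA signal plotted against compound concentration.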

[3] = molecular target: T3, BCL-xL (Homo sapiens, UniProt Q07817); test: BCL-xL degradation by immunoblot in 293T cells; format: cell-based; details: for DC50: 293T cells, 16 h; for normalized BCL-xL protein content at 1 µM: 293T, 1 μM 753b, Fig. 3d
T3 construct: endogenous in cells
Method in brief: as §1

[4] = HEK-293T, time point 1 (unit inferred), time 0 = 100, 3 replicates

T2 sequence (P10415 1-211 limits assumed): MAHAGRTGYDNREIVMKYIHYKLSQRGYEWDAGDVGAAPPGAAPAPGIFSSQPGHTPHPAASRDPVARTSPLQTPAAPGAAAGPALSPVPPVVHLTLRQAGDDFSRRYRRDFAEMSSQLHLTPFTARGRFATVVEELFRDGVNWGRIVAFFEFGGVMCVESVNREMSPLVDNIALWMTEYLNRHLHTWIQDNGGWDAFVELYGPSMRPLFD
T2 sequence (P40337 54-213 limits assumed): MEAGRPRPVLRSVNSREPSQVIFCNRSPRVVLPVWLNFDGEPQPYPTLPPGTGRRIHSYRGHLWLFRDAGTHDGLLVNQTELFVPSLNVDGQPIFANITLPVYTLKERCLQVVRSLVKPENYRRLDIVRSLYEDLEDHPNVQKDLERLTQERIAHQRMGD
T2 sequence (Q15369 17-112 partner limits assumed): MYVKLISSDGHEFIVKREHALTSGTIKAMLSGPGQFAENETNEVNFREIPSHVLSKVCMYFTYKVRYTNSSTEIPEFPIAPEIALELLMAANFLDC
T2 sequence (Q15370 whole entry partner): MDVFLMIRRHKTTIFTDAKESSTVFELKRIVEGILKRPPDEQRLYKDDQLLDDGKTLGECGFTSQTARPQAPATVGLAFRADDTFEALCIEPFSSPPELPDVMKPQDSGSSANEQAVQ
T3 sequence (Q07817 whole entry): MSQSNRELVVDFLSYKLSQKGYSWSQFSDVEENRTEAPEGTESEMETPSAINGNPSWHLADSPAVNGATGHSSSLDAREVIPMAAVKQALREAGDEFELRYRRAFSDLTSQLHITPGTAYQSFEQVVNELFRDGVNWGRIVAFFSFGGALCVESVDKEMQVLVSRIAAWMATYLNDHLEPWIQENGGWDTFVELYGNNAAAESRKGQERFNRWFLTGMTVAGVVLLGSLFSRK
T1 sequence (P10415 whole entry): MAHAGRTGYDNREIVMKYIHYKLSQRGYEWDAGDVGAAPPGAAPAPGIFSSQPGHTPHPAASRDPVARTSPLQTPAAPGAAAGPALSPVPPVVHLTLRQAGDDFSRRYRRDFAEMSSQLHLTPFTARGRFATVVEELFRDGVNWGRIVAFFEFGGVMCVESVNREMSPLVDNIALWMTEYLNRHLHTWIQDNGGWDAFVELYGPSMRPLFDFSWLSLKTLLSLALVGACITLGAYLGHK

Compound: Cc1ncsc1-c1ccc([C@H](C)NC(=O)[C@@H]2C[C@@H](O)CN2C(=O)[C@@H](NC(=O)CCCCCCC(=O)N2CCN(C[C@]3(C)CCC(c4ccc(Cl)cc4)=C(CN4CCN(c5ccc(C(=O)NS(=O)(=O)c6ccc(N[C@H](CCN7CCOCC7)CSc7ccccc7)c(S(=O)(=O)C(F)(F)F)c6)cc5)CC4)C3)CC2)C(C)(C)C)cc1 [753b]
- DC50 ([1]; 293T cells, 16 h, Fig. 3c, read-out: DC50 in degrading BCL-2): 48 nM
- normalized BCL-2 protein content at 1 µM [1, 4]: 99%
- normalized BCL-2 protein content at 1 µM ([1]; HEK-293T, time point 3): 75%
- normalized BCL-2 protein content at 1 µM ([1]; HEK-293T, time point 6): 54%
- normalized BCL-2 protein content at 1 µM ([1]; HEK-293T, time point 12): 18%
- normalized BCL-2 protein content at 1 µM ([1]; HEK-293T, time point 16): 4%
- normalized BCL-2 protein content at 1 µM ([1]; HEK-293T, time point 24): 3%
- normalized BCL-2 protein content at 1 µM ([1]; HEK-293T, time point 36): 2%
- in vitro ternary complex formation with BCL-2 (in words) ([2]; AlphaLISA, cell-free, Fig. 2d, 3f): stronger ternary complexes with BCL-xL/2 than those by 753a and DT2216
- Alpha (Alpha Endpoint read, Bcl-2 ternary complex formation) ([2]; Conc. 0.0762939 nM): 175483 and 157446
- Alpha (Alpha Endpoint read, Bcl-2 ternary complex formation) ([2]; Conc. 0.305176 nM): 174555 and 132830
- Alpha (Alpha Endpoint read, Bcl-2 ternary complex formation) ([2]; Conc. 1.2207 nM): 345223 and 378556
- Alpha (Alpha Endpoint read, Bcl-2 ternary complex formation) ([2]; Conc. 4.88281 nM): 1458903 and 1528033
- Alpha (Alpha Endpoint read, Bcl-2 ternary complex formation) ([2]; Conc. 19.5312 nM): 3478424 and 3254843
- Alpha (Alpha Endpoint read, Bcl-2 ternary complex formation) ([2]; Conc. 78.125 nM): 2950431 and 3084677
- Alpha (Alpha Endpoint read, Bcl-2 ternary complex formation) ([2]; Conc. 312.5 nM): 1886162 and 2006989
- Alpha (Alpha Endpoint read, Bcl-2 ternary complex formation) ([2]; Conc. 1250 nM): 474662 and 509499
- Alpha (Alpha Endpoint read, Bcl-2 ternary complex formation) ([2]; Conc. 5000 nM): 83238 and 74082
- Alpha (Alpha Endpoint read, Bcl-2 ternary complex formation) ([2]; Conc. 20000 nM): 44557 and 25949
- DC50 ([3]; Fig. 3c, read-out: DC50 in degrading BCL-xL): 6 nM
- normalized BCL-xL protein content at 1 µM [3, 4]: 77%
- normalized BCL-xL protein content at 1 µM ([3]; HEK-293T, time point 3): 55%
- normalized BCL-xL protein content at 1 µM ([3]; HEK-293T, time point 6): 21%
- normalized BCL-xL protein content at 1 µM ([3]; HEK-293T, time point 12): 13%
- normalized BCL-xL protein content at 1 µM ([3]; HEK-293T, time point 16): 12%
- normalized BCL-xL protein content at 1 µM ([3]; HEK-293T, time point 24): 8%

Compound: Cc1ncsc1-c1ccc([C@H](C)NC(=O)[C@@H]2C[C@@H](O)CN2C(=O)[C@@H](NC(=O)CCCCCC(=O)N2CCN(CC[C@H](CSc3ccccc3)Nc3ccc(S(=O)(=O)NC(=O)c4ccc(N5CCN(CC6=C(c7ccc(Cl)cc7)CCC(C)(C)C6)CC5)cc4)cc3S(=O)(=O)C(F)(F)F)CC2)C(C)(C)C)cc1 [DT2216]
- BCL-2 degradation (in words) ([1]; 293T cells, 16 h): did not induce BCL-2 degradation
- Dmax ([1]; HEK-293T): 0%
- Alpha (Alpha Endpoint read, Bcl-2 ternary complex formation) ([2]; Conc. 0.0762939 nM): 20813 and 18426
- Alpha (Alpha Endpoint read, Bcl-2 ternary complex formation) ([2]; Conc. 0.305176 nM): 25167 and 44180
- Alpha (Alpha Endpoint read, Bcl-2 ternary complex formation) ([2]; Conc. 1.2207 nM): 134706 and 124477
- Alpha (Alpha Endpoint read, Bcl-2 ternary complex formation) ([2]; Conc. 4.88281 nM): 167974 and 147424
- Alpha (Alpha Endpoint read, Bcl-2 ternary complex formation) ([2]; Conc. 19.5312 nM): 637139 and 671757
- Alpha (Alpha Endpoint read, Bcl-2 ternary complex formation) ([2]; Conc. 78.125 nM): 1569627 and 1815622
- Alpha (Alpha Endpoint read, Bcl-2 ternary complex formation) ([2]; Conc. 312.5 nM): 1851330 and 1734079
- Alpha (Alpha Endpoint read, Bcl-2 ternary complex formation) ([2]; Conc. 1250 nM): 970107 and 1023464
- Alpha (Alpha Endpoint read, Bcl-2 ternary complex formation) ([2]; Conc. 5000 nM): 185911 and 171854
- Alpha (Alpha Endpoint read, Bcl-2 ternary complex formation) ([2]; Conc. 20000 nM): 15128 and 13041
- AlphaLISA signal, BCL-2/PROTAC/VCB ([2]; compound 0.191 nM): 15777 and 15419
- AlphaLISA signal, BCL-2/PROTAC/VCB ([2]; compound 0.763 nM): 15170 and 18328
- AlphaLISA signal, BCL-2/PROTAC/VCB ([2]; compound 3.052 nM): 22062 and 18311
- AlphaLISA signal, BCL-2/PROTAC/VCB ([2]; compound 12.207 nM): 69812 and 70261
- AlphaLISA signal, BCL-2/PROTAC/VCB ([2]; compound 48.828 nM): 478226 and 503248
- AlphaLISA signal, BCL-2/PROTAC/VCB ([2]; compound 195.31 nM): 862665 and 765838
- AlphaLISA signal, BCL-2/PROTAC/VCB ([2]; compound 781.25 nM): 770133 and 699715
- AlphaLISA signal, BCL-2/PROTAC/VCB ([2]; compound 3125 nM): 392514 and 467832
- AlphaLISA signal, BCL-2/PROTAC/VCB ([2]; compound 12500 nM): 47038 and 50161
- AlphaLISA signal, BCL-2/PROTAC/VCB ([2]; compound 50000 nM): 7988 and 8322
- AlphaLISA signal, BCL-2/PROTAC/VCB ([2]; compound 200000 nM, 2 technical replicates): 7003 and 7472
- DC50 ([3]; four concentrations, Fig. 2b, read-out: BCL-xL DC50): 20.3 nM
- Dmax ([3]; HEK-293T): 92%
